Data as given in patent US7820196B2, “Physiologically active agents containing vicinal dithioglycols and use thereof in various branches of economy” (priority 1999, dated 2010).
“And” between values parts separate entries of the source, which are not always exact repeats. Equal values may be shown once.

Experiments:
broiler chickens = assay: Example 6: effect of unithiol on accumulation of heavy metal compounds in tissues of poultry; type: in vivo
Description: An experiment was conducted, on the inventors' initiative, on the experimental base of the All-Russia research and technological institute for aviculture (VNITIP) during which a study was given to the following tasks: • determination of an effect produced by unithiol (DMPS) on the productivity and meat quality of broiler chickens; • effect produced by unithiol on the accumulation of heavy metal compounds (mercury, cadmium, lead) in various tissues of poultry.
The experiment was carried out in a vivarium on broiler chickens of one cross. Poultry was grown in cell batteries from one day to six-week age. The operating parameters and feeding level met the recommendation VNITIP 1999. The experiment was conducted according to the diagram on Table 1.
The poultry population: 1 and 2 groups, 35 heads each; 3,4,5 groups—6 heads each.
13. Contained heavy metal residual compounds (mercury, cadmium, lead) in mixed feed for the broilers.
14. Evaluation of the level of meat contamination and internal organs (liver and kidneys) of the broilers with heavy metal salts.

[1] = tested on: participants (males and females) taking 1 l dark beer every evening; assay: Example 7: hangover and biochemical indices in participants taking dark beer with Unithiol or placebo; type: in vivo, human; details: for MDA (urine) / ALT (blood) / AST (blood) / SH-gr. (blood) / Triglycerides (blood) / Urate (blood) / Vit. A (blood) / Vit. E (blood): one value per participant
From the text: The tests were held upon the offer's proposal. The Moscow scientific and practical Center for the drug prophylactic of the Moscow health Administration was taken as the base for it.
The experiment was schemed as follows. The participants were taken from males and females of different age groups and different alcohol intake habits.
The control group remained as an intact one.
The experimental group—1—took in 1 l. of a dark beer of the “Klinskoie” type every evening from the X^th day till the X+13th day. That group took in the placebo every morning from the X+1th day till X+7th day, and every morning it took in from the X+8th day till X+14th day the solution of 250 mg of Unithiol in 100 g of drinking water.
The experimental group—2—took in 1 l. of a dark beer of the “Klinskoie” type every evening from the X^th day till the X+13th day. That group took in the solution of 250 mg of Unithiol in 100 g of drinking water every morning from the X+1th day till X+7th day, and every morning it took in the placebo from the X+8th day till X+14th day.
The measurements of the biochemical indices were taken in the mornings in every group, and in the control groups—after 30 minutes of placebo or Unithiol intake.
The following indices of the level of the per oxidation of lipids and the condition of the liver and the brain tissues were measured: • MDA—malondialdehyde • Triglycerides • Endogenous antioxidants: • Vit. A—vitamin A • Vit. E—vitamin E • Urate—serum urate • SH-gr.—SH-groups • Aminotransferase: • ALT—lanine aminotransferase • AST—aspartate aminotransferase

[2] = Group 2: BR + 17 mg unithiol/kg feed days 15-42
[3] = Group 4: BR + heavy metals + 17 mg unithiol/kg feed, both days 15-42
[4] = Group 5: BR + heavy metals days 15-35, 34 mg unithiol/kg feed days 36-42
[5] = day X+7, Experimental group 2: beer every evening, 250 mg Unithiol mornings X+1 to X+7
[6] = day X+14, Experimental group 1: beer every evening, 250 mg Unithiol mornings X+8 to X+14

O=S(=O)([O-])CC(S)CS.[Na+] (centres unmarked) [Unithiol, Sodium 2,3-Dimercaptopropane sulfonate]
Heavy metal content: cadmium, kidneys (broiler chickens; [2]): 0.078 mg/kg
Heavy metal content: cadmium, liver (broiler chickens; [2]): 0.049 mg/kg
Heavy metal content: lead, kidneys (broiler chickens; [2]): 0.67 mg/kg
Heavy metal content: lead, liver (broiler chickens; [2]): 0.40 mg/kg
Heavy metal content: mercury, kidneys (broiler chickens; [2]): 0.055 mg/kg
Heavy metal content: mercury, liver (broiler chickens; [2]): 0.039 mg/kg
Heavy metal content: zinc, kidneys (broiler chickens; [2]): 95.3 mg/kg
Heavy metal content: zinc, liver (broiler chickens; [2]): 104.1 mg/kg
Heavy metal content: zinc, muscular tissue (broiler chickens; [2]): 50.2 mg/kg
Heavy metal content: cadmium, kidneys (broiler chickens; [3]): 3.76 mg/kg
Heavy metal content: cadmium, liver (broiler chickens; [3]): 2.98 mg/kg
Heavy metal content: cadmium, muscular tissue (broiler chickens; [3]): 0.37 mg/kg
Heavy metal content: lead, kidneys (broiler chickens; [3]): 8.50 mg/kg
Heavy metal content: lead, liver (broiler chickens; [3]): 4.80 mg/kg
Heavy metal content: lead, muscular tissue (broiler chickens; [3]): 0.83 mg/kg
Heavy metal content: mercury, kidneys (broiler chickens; [3]): 2.00 mg/kg
Heavy metal content: mercury, liver (broiler chickens; [3]): 2.18 mg/kg
Heavy metal content: mercury, muscular tissue (broiler chickens; [3]): 0.375 mg/kg
Heavy metal content: zinc, kidneys (broiler chickens; [3]): 103.1 mg/kg
Heavy metal content: zinc, liver (broiler chickens; [3]): 107.2 mg/kg
Heavy metal content: zinc, muscular tissue (broiler chickens; [3]): 50.4 mg/kg
Heavy metal content: cadmium, kidneys (broiler chickens; [4]): 2.97 mg/kg
Heavy metal content: cadmium, liver (broiler chickens; [4]): 2.30 mg/kg
Heavy metal content: cadmium, muscular tissue (broiler chickens; [4]): 0.24 mg/kg
Heavy metal content: lead, kidneys (broiler chickens; [4]): 7.00 mg/kg
Heavy metal content: lead, liver (broiler chickens; [4]): 3.40 mg/kg
Heavy metal content: lead, muscular tissue (broiler chickens; [4]): 0.54 mg/kg
Heavy metal content: mercury, kidneys (broiler chickens; [4]): 1.05 mg/kg
Heavy metal content: mercury, liver (broiler chickens; [4]): 1.12 mg/kg
Heavy metal content: mercury, muscular tissue (broiler chickens; [4]): 0.328 mg/kg
Heavy metal content: zinc, kidneys (broiler chickens; [4]): 98.2 mg/kg
Heavy metal content: zinc, liver (broiler chickens; [4]): 104.3 mg/kg
Heavy metal content: zinc, muscular tissue (broiler chickens; [4]): 50.3 mg/kg
heavy metal salt content in the depositing organs and meat (broiler chickens; use of unithiol): considerably reduce a heavy metal salt content
time to full hangover alleviating after intake ([1]; 250 mg Unithiol in 100 g drinking water in the morning after 1 l dark beer in the evening): 5 to 10 min
toxic activity of ethanol and products of its incomplete oxidation (carbonyl compounds) to liver and brain tissue ([1]; Unithiol intake during alcohol intake): reduce almost to the whole extent
MDA (urine) ([1]; day X+2, Experimental group 2: 1 l dark beer every evening, 250 mg Unithiol mornings X+1 to X+7): 0.62 nM/ml and 0.45 nM/ml (2×) and 0.47 nM/ml and 0.43 nM/ml and 0.99 nM/ml and 0.67 nM/ml
MDA (urine) ([1]; day X+4, Experimental group 2: beer every evening, 250 mg Unithiol mornings X+1 to X+7): 0.60 nM/ml and 0.58 nM/ml (2×) and 0.42 nM/ml and 0.51 nM/ml and 0.88 nM/ml and 0.53 nM/ml
ALT (blood) [1, 5]: 61 nmol (sec. 1) and 50 nmol (sec. 1) (2×) and 37 nmol (sec. 1) and 46 nmol (sec. 1) and 190 nmol (sec. 1) and 39 nmol (sec. 1)
AST (blood) [1, 5]: 48 nmol (sec. 1) and 46 nmol (sec. 1) and 31 nmol (sec. 1) and 41 nmol (sec. 1) and 37 nmol (sec. 1) and 172 nmol (sec. 1) and 30 nmol (sec. 1)
MDA (urine) [1, 5]: 0.55 nM/ml and 0.43 nM/ml and 0.49 nM/ml and 0.42 nM/ml and 0.38 nM/ml and 0.89 nM/ml and 0.56 nM/ml
SH-gr. (blood) [1, 5]: 378 MKM and 389 MKM (2×) and 383 MKM and 380 MKM and 197 MKM and 354 MKM
Triglycerides (blood) [1, 5]: 0.80 mmoi/l and 0.59 mmoi/l and 0.44 mmoi/l and 0.43 mmoi/l and 0.41 mmoi/l and 1.73 mmoi/l and 0.42 mmoi/l
Urate (blood) [1, 5]: 268 MKM and 267 MKM and 311 MKM and 295 MKM and 280 MKM and 208 MKM and 279 MKM
Vit. A (blood) [1, 5]: 1.9 µg/mL and 2.2 µg/mL and 2.8 µg/mL and 2.3 µg/mL and 2.7 µg/mL and 0.6 µg/mL and 1.6 µg/mL
Vit. E (blood) [1, 5]: 2.6 µg/mL and 3.3 µg/mL and 3.1 µg/mL and 3.8 µg/mL and 3.2 µg/mL and 1.0 µg/mL and 2.4 µg/mL
MDA (urine) ([1]; day X+9, Experimental group 1: 1 l dark beer every evening, placebo mornings X+1 to X+7, 250 mg Unithiol mornings X+8 to X+14): 0.7 nM/ml and 1.0 nM/ml and 0.90 nM/ml and 0.82 nM/ml
MDA (urine) ([1]; day X+11, Experimental group 1: beer every evening, 250 mg Unithiol mornings X+8 to X+14): 0.63 nM/ml and 0.80 nM/ml and 0.72 nM/ml and 0.54 nM/ml
ALT (blood) [1, 6]: 52 nmol (sec. 1) and 58 nmol (sec. 1) and 45 nmol (sec. 1) and 42 nmol (sec. 1)
AST (blood) [1, 6]: 41 nmol (sec. 1) and 50 nmol (sec. 1) and 40 nmol (sec. 1) and 35 nmol (sec. 1)
MDA (urine) [1, 6]: 0.69 nM/ml and 0.82 nM/ml and 0.64 nM/ml and 0.53 nM/ml
SH-gr. (blood) [1, 6]: 384 MKM and 375 MKM and 389 MKM and 392 MKM
Triglycerides (blood) [1, 6]: 0.65 mmoi/l and 0.59 mmoi/l and 0.71 mmoi/l and 0.64 mmoi/l
Urate (blood) [1, 6]: 265 MKM and 253 MKM and 285 MKM and 279 MKM
Vit. A (blood) [1, 6]: 1.4 mcg/ml (2×) and 1.2 mcg/ml and 2.1 mcg/ml
Vit. E (blood) [1, 6]: 2.8 µg/mL and 2.1 µg/mL and 2.2 µg/mL and 1.7 µg/mL
